Assay results as given in patent publication US20260356851A1, “TRICYCLIC COMPOUNDS AND USES THEREOF” (HUTCHMED LIMITED, priority 2023, published 2026).
Read-outs that look alike come from different tables or passages of the source.

Legend:
Type in all cases: cell-based
[1] = target: T1, pERK1/2 (Thr202/Tyr204), NCI-1H358 (KRAS G12C) (Homo sapiens, UniProt P01116, G12C); test: Assay of intracellular pERK1/2 (Thr202/Tyr204) phosphorylation in NCI-H358 cells (KRAS G12C)
T1 construct: pERK1/2 HTRF read-out
T1 sequence (P01116 1-188 isoform P01116-2 G12C): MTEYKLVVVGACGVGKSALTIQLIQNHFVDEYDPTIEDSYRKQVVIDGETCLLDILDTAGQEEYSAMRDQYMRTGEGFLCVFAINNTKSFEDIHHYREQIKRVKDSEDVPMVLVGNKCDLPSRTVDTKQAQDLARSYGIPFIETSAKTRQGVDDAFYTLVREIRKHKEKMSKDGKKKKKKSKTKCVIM
Procedure, shortened: (§1)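 Cells (10000-12000/well) exposed to 3-fold compound dilutions for 2 days at 37 °C, then lysed; pERK1/2 (Thr202/Tyr204) measured by HTRF with d2 and cryptate antibodies, 665/615 nm ratio.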

[2] = target: T2, pERK1/2 (Thr202/Tyr204), PANC-1 (KRAS G121D) (Homo sapiens, UniProt P01116, G12D); test: Assay of intracellular pERK1/2 (Thr202/Tyr204) phosphorylation in PANC-1 cells (KRAS G12D)
T2 construct: pERK1/2 HTRF read-out
T2 sequence (P01116 1-188 isoform P01116-2 G12D): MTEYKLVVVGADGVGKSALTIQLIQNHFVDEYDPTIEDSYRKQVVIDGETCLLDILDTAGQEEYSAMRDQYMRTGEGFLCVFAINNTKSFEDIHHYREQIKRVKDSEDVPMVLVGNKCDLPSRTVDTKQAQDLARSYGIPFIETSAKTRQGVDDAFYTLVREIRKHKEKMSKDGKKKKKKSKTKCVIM
Procedure, shortened: as §1

[3] = target: T3, pERK1/2 (Thr202/Tyr204), NCI-1H441 (KRAS G12V) (Homo sapiens, UniProt P01116, G12V); test: Assay of intracellular pERK1/2 (Thr202/Tyr204) phosphorylation in NCI-H441 cells (KRAS G12V)
T3 construct: pERK1/2 HTRF read-out
T3 sequence (P01116 1-188 isoform P01116-2 G12V): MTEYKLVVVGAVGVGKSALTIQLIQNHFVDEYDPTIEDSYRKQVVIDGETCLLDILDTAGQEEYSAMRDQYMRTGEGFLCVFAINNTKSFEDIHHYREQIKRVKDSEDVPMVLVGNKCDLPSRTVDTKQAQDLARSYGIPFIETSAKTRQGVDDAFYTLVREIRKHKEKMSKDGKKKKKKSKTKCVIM
Procedure, shortened: as §1

[4] = pERK1/2, 2 days, read-out: NCI-H358 (KRAS G12C) IC50
[5] = pERK1/2, 2 days, read-out: PANC-1 (KRAS G12D) IC50
[6] = pERK1/2, 2 days, read-out: NCI-H441 (KRAS G12V) IC50

SMILES	IC50 [1, 4] [nM]	IC50 [2, 5] [nM]	IC50 [3, 6] [nM]	IC50 ([1]; read-out: NCI-H358 (KRAS G12C) IC50, pERK1/2, 2 days) [nM]	IC50 ([2]; read-out: PANC-1 (KRAS G12D) IC50, pERK1/2, 2 days) [nM]	IC50 ([3]; read-out: NCI-H441 (KRAS G12V) IC50, pERK1/2, 2 days) [nM]
CC(c1cccnc1N)N1c2nc(OC[C@@]34CCCN3C[C@H](F)C4)nc3c(F)c(-c4cc(O)cc(Cl)c4C#N)nc(c23)OC[C@@H]1C (stereo partly drawn) [Compound 322]	21	> 100	97	–	–	–
CC(c1cccnc1N)N1CCOc2nc(-c3cc(O)cc4ccc(F)c(F)c34)c(F)c3nc(OC[C@@]45CCCN4C[C@H](F)C5)nc1c23 (stereo partly drawn) [Compound 1, 4-(10-(1-(2-Aminopyridin-3-yl)ethyl)-4-fluoro-2-(((2R,7aS)-2-fluorotetrahydro-1H-pyrrolizin-7a(5H)-yl)methoxy)-9,10-dihydro-8H-7-oxa-1,3,6,10-tetraazacyclohepta[de]naphthalen-5-yl)-5,6-difluoronaphthalen-2-ol]	–	–	–	0.7	6	3
CC(c1cccnc1N)N1CCOc2nc(-c3cc(O)cc4ccc(F)c(F)c34)c(F)c3ncnc1c23 (single isomer, unassigned) [Compound 30, (R or S)-4-(10-(1-(2-aminopyridin-3-yl)ethyl)-4-fluoro-9,10-dihydro-8H-7-oxa-1,3,6,10-tetraazacyclohepta[de]naphthalen-5-yl)-5,6-difluoronaphthalen-2-ol]	31	> 1000	64	–	–	–
CC(c1cccnc1N)N1CCOc2nc(-c3cc(O)cc4ccc(F)c(F)c34)c(F)c3ncnc1c23 (single isomer, unassigned) [Compound 29, (R or S)-4-(10-(1-(2-aminopyridin-3-yl)ethyl)-4-fluoro-9,10-dihydro-8H-7-oxa-1,3,6,10-tetraazacyclohepta[de]naphthalen-5-yl)-5,6-difluoronaphthalen-2-ol]	> 1000	> 1000	> 1000	–	–	–
Cc1n[nH]c2cc3ccccc3c(-c3cc4nc(OC[C@@]56CCCN5C[C@H](F)C6)nc5c4c(n3)OC[C@H](C)N5C(C)c3cccnc3N)c12 (stereo partly drawn) [Compound 402]	0.4	0.4	0.6	–	–	–
C/C=C/c1cc(N)cc(-c2nc3c4c(nc(OC[C@@]56CCCN5C[C@H](F)C6)nc4c2F)N(C(C)c2cccnc2N)[C@@H](C)CO3)c1C(F)(F)F (stereo partly drawn) [Compound 302]	> 100	> 100	> 100	–	–	–
CC(c1cccnc1N)N1c2nc(OC[C@@]34CCCN3C[C@H](F)C4)nc3c(F)c(-c4c5cn[nH]c5cc5ccc(F)c(F)c45)nc(c23)OC[C@@H]1C (stereo partly drawn) [Compound 369]	0.2	0.4	0.2	–	–	–
CC(c1cccnc1N)N1CCOc2nc(-c3cc(O)cc4ccc(F)c(F)c34)c(F)c3nc(OC[C@@H]4CCCN4C)nc1c23 (stereo partly drawn) [Compound 6]	4	136	17	–	–	–
Cc1c(F)c(N)cc(-c2nc3c4c(nc(OC[C@@]56CCCN5C[C@H](F)C6)nc4c2F)N([C@H](C)c2cccnc2N)CCO3)c1C(F)(F)F (single isomer, unassigned) [Compound 137]	0.1	0.9	0.2	–	–	–
CC(c1cccnc1N)N1CCOc2nc(-c3ccc(F)c4sc(N)nc34)c(F)c3nc(OC[C@@H]4CCN4CC(F)F)nc1c23 (stereo partly drawn) [Compound 19]	15	> 1000	66	–	–	–
CC(c1cccnc1N)N1CCOc2nc(-c3cc(N)c(F)c(Cl)c3C(F)(F)F)c(F)c3nc(OCC45CC(F)CN4CC(F)C5)nc1c23 (single isomer, unassigned; diastereomer 1) [Compound 245, (*)3-(1-(5-(5-amino-3-chloro-4-fluoro-2-(trifluoromethyl)phenyl)-2-(((2R or 2S,6R or 6S)-2,6-difluorotetrahydro-1H-pyrrolizin-7a(5H)-yl)methoxy)-4-fluoro-8,9-dihydro-10H-7-oxa-1,3,6,10-tetraazacyclohepta[de]naphthalen-10-yl)ethyl)pyridin-2-amine (diastereomer 1)]	0.2	10	0.5	–	–	–
CC(c1cccnc1N)N1CCOc2nc(-c3cccc4sc(N)nc34)c(F)c3nc(OC[C@@H]4CCN4CC(F)F)nc1c23 (stereo partly drawn) [Compound 17]	29	> 1000	108	–	–	–
C[C@H](c1cccnc1N)N1CCOc2nc(-c3cc(O)cc(Cl)c3C3CC3)c(F)c3nc(OC[C@@H]4CCN4CC(F)F)nc1c23 (single isomer, unassigned) [Compound 20, 3-(10-((R or S)-1-(2-aminopyridin-3-yl)ethyl)-2-(((S)-1-(2,2-difluoroethyl)azetidin-2-yl)methoxy)-4-fluoro-9,10-dihydro-8H-7-oxa-1,3,6,10-tetraazacyclohepta[de]naphthalen-5-yl)-5-chloro-4-cyclopropylphenol]	783	> 1000	> 1000	–	–	–
CC(c1cccnc1N)N1CCOc2nc(-c3cc(N)ccc3C(F)(F)F)c(F)c3nc(OC[C@@H]4CC(F)(F)CN4C)nc1c23 (stereo partly drawn) [Compound 37]	11	851	26	–	–	–
[2H]C1([2H])CC[C@@]2(COc3nc4c5c(nc(-c6cc(N)c(F)c(Cl)c6C(F)(F)F)c(F)c5n3)OC([2H])([2H])C([2H])([2H])N4[C@H](C)c3cccnc3N)C[C@@H](F)CN12 (single isomer, unassigned) [Compound 222, 3-((R or S)-1-(5-(5-amino-3-chloro-4-fluoro-2-(trifluoromethyl)phenyl)-4-fluoro-2-(((2R,7aS)-2-fluorotetrahydro-1H-pyrrolizin-7a(5H)-yl-5,5-d2)methoxy)-8,9-dihydro-10H-7-oxa-1,3,6,10-tetraazacyclohepta[de]naphthalen-10-yl-8,8,9,9-d4)ethyl)pyridin-2-amine]	0.1	2	0.4	–	–	–
CC(c1cccnc1N)N1CCOc2nc(-c3cc(O)cc4ccc(F)c(F)c34)c(F)c3nc(OC[C@@H]4CCCN4C)nc1c23 (single isomer, unassigned) [Compound 42, 4-(10-((R or S)-1-(2-aminopyridin-3-yl)ethyl)-4-fluoro-2-(((S)-1-methylpyrrolidin-2-yl)methoxy)-9,10-dihydro-8H-7-oxa-1,3,6,10-tetraazacyclohepta[de]naphthalen-5-yl)-5,6-difluoronaphthalen-2-ol]	0.9	69	5	–	–	–

Further lines, results first:

IC50 [1, 4] [nM]	IC50 [2, 5] [nM]	IC50 [3, 6] [nM]	IC50 ([1]; read-out: NCI-H358 (KRAS G12C) IC50, pERK1/2, 2 days) [nM]	IC50 ([2]; read-out: PANC-1 (KRAS G12D) IC50, pERK1/2, 2 days) [nM]	IC50 ([3]; read-out: NCI-H441 (KRAS G12V) IC50, pERK1/2, 2 days) [nM]	SMILES
0.7	2	0.8	–	–	–	[2H]C1([2H])CC[C@@]2(C([2H])([2H])Oc3nc4c5c(nc(-c6cc(N)cc(Cl)c6C(F)(F)F)c(F)c5n3)OCCN4C(C)c3cccnc3N)C[C@@H](F)CN12 (stereo partly drawn) [Compound 113]
1	21	1	–	–	–	[2H]C([2H])([2H])N1CCC[C@H]1COc1nc2c3c(nc(-c4cc(N)cc(Cl)c4C(F)(F)F)c(F)c3n1)OCCN2C(C)c1cccnc1N (stereo partly drawn) [Compound 111]
> 100	> 100	> 100	–	–	–	C#Cc1c(F)ccc2cc(O)cc(-c3nc4c5c(nc(OC[C@@]67CCCN6C[C@H](F)C7)nc5c3F)N(C3CC3)CCO4)c12 [Compound 197]
0.3	1	0.4	–	–	–	Cc1cc(N)cc(-c2nc3c4c(nc(OC[C@@]56CCCN5CC5(CC5(F)F)C6)nc4c2F)N(C(C)c2cccnc2N)CCO3)c1C(F)(F)F (stereo partly drawn) [Compound 237]
2	20	7	–	–	–	[2H]C1([2H])CC[C@@]2(COc3nc4c5c(nc(-c6cc(N)c(F)c(Cl)c6C(F)(F)F)c(F)c5n3)OC([2H])([2H])C([2H])([2H])N4C(C)c3cccnc3N)C[C@@H](F)CN12 (single isomer, unassigned) [Compound 223, 3-((R or S)-1-(5-(5-amino-3-chloro-4-fluoro-2-(trifluoromethyl)phenyl)-4-fluoro-2-(((2R,7aS)-2-fluorotetrahydro-1H-pyrrolizin-7a(5H)-yl-5,5-d2)methoxy)-8,9-dihydro-10H-7-oxa-1,3,6,10-tetraazacyclohepta[de]naphthalen-10-yl-8,8,9,9-d4)ethyl)pyridin-2-amine]
223	> 1000	820	–	–	–	CC(c1cccnc1N)N1CCOc2nc(-c3cc(O)cc4ccc(F)c(F)c34)c(F)c3nc(OC[C@@H]4CCCN4C)nc1c23 (single isomer, unassigned) [Compound 41, 4-(10-((R or S)-1-(2-aminopyridin-3-yl)ethyl)-4-fluoro-2-(((S)-1-methylpyrrolidin-2-yl)methoxy)-9,10-dihydro-8H-7-oxa-1,3,6,10-tetraazacyclohepta[de]naphthalen-5-yl)-5,6-difluoronaphthalen-2-ol]
14	41	25	–	–	–	CC(c1cccnc1N)N1c2nc(OC[C@@]34CCCN3C[C@H](F)C4)nc3c(F)c(-c4c5c(cc6[nH]ncc46)CCC5=O)nc(c23)OC[C@@H]1C (single isomer, unassigned) [Compound 373]
0.2	2	0.7	–	–	–	Cc1cc(N)cc(-c2nc3c4c(nc(OC[C@@]56CCCN5C[C@H](F)C6)nc4c2F)N(C(C)c2cccnc2N)CCO3)c1C(F)(F)F (stereo partly drawn) [Compound 59]
